Source: patent US20050208528A1, “Enhancement of the stability of oligonucleotides comprising phosphorothioate linkages by addition of water-soluble antioxidants” (ISIS Pharmaceuticals, Inc., priority 2001, published 2005)
Counter-ions that a name gives are not always drawn. Like-named read-outs stand apart in the source and are kept apart here. In the oligonucleotide strings, read from the 5' end, every base follows the letter of its sugar. An asterisk marks phosphorothioate; unmarked linkages are phosphodiester. Other units and linkages are bracketed, terminal groups are in braces. A string of capitals states the bases alone. d = 2'-deoxy (DNA)

Legend:
[1] = system: ICAM-1; details: C8161 human melanoma cells; cited from earlier work
[2] = system: ISIS 2302; experiment: Desulfurization in bi-phasic cream formulation with oil-soluble antioxidants, 40° C. for 2 days; assay type: physicochemical; details: for Full PS content (%): 0.03% ISIS 2302, 0 mg gives 83.9; for Full PS content (%) / Protection of phosphorothioate oligonucleotides against desulfurization (in words): 40° C. 2 days; for Protection of phosphorothioate oligonucleotides against desulfurization (in words): biphasic cream
Experimental: (§1) A cream formulation was prepared containing 5.0 g BRIJ 58 (polyoxyethylene[20]cetyl ether), 0.03% ISIS 2302 and different concentrations of phenolic antioxidants.

[3] = system: phosphorothioate oligonucleotide (ISIS-2302); experiment: Desulfurization of phosphorothioate oligonucleotide in mono-phasic system with oil-soluble antioxidants (SAX chromatography); assay type: physicochemical; details: for Full PS content (area-% SAX): 0.5 g PEG-40-monostearate, 1.5 ml phosphate buffer pH 7.0, 1.5 mg ISIS-2302, 65° C. 20 hours, no antioxidants 51.0
Experimental: Polyethyleneglycol-40-monostearate (0.5 g), a water-soluble excipient which forms peroxides in the absence of antioxidants, was heated at 65° C. for 20 hours with 1.5 ml phosphate buffer, pH 7.0 and 1.5 mg phosphorothioate oligonucleotide (ISIS-2302) in the absence or presence of various oil-soluble antioxidants. Oligonucleotides were isolated by ethanol precipitation and phosphorothioate content was determined by strong anion exchange (SAX) chromatography.

[4] = system: ISIS 2302; experiment: Desulfurization in bi-phasic cream formulation with water-soluble and oil-soluble antioxidants, 40° C. for 6 days; assay type: physicochemical; details: for Full PS content (%): cream, 0.03% ISIS 2302, 40° C. 6 days, no additive 84.7
Experimental: The cream was heated at 40° C. for 6 days and the oligonucleotide was isolated by ethanol precipitation and analyzed for full PS content by SAX chromatography.

[5] = system: ISIS 2302; experiment: Long-term protection of creams by antioxidants, 40° C. for 1 month; assay type: physicochemical; parameters: full PS-content: unit: %; details: for full PS-content: cream, 0.03% ISIS 2302, 40° C. 1 month, LC/MS or SAX, no antioxidants 45.1, no excipients 91.3; for Protection against desulfurization (in words): bi-phasic cream formulation
Experimental: as §1

[6] = system: HLA-A and HLA-B; details: versus HLA-A and HLA-B; cited from earlier work
[7] = system: C8161 cells; details: experimental metastasis assay, cited from earlier work
[8] = cited from earlier work
[9] = Crohn's disease, rheumatoid arthritis, psoriasis, ulcerative colitis, kidney transplant rejection models; cited from earlier work
[10] = system: ICAM-1; details: cited from earlier work
[11] = 5 mg antioxidant in 100 g cream
[12] = 10 mg antioxidant in 100 g cream
[13] = 25 mg antioxidant in 100 g cream
[14] = 50 mg antioxidant in 100 g cream
[15] = 75 mg antioxidant in 100 g cream
[16] = 100 mg antioxidant in 100 g cream
[17] = cream with 0.03% ISIS 2302, before heating

ISIS 1939: 2′-deoxyoligonucleotide, phosphorothioate backbone, 5′-CCC-CCA-CCA-CTT-CCC-CTC-TC-3′ (SEQ ID NO:2), targeted to 3′-UTR of human ICAM-1 gene (antisense dC*dC*dC*dC*dC*dA*dC*dC*dA*dC*dT*dT*dC*dC*dC*dC*dT*dC*dT*dC)
ICAM-1 expression (mRNA levels, northern blot) [1]: markedly reduced ICAM-1 expression

Vitamin E
Full PS content (%) [2, 11]: 84.0% | Full PS content (%) [2, 12]: 81.9% | Full PS content (%) [2, 13]: 80.6% | Full PS content (%) [2, 14]: 78.6% | Full PS content (%) [2, 15]: 78.7% | Full PS content (%) [2, 16]: 76.3% | Protection of phosphorothioate oligonucleotides against desulfurization (in words) [2]: do not provide protection | Full PS content (area-% SAX) ([3]; 15 mg additive): 89.7 area-% SAX | Protection of phosphorothioate oligonucleotide against desulfurization (in words) ([3]; mono-phasic system): inhibit desulfurization | Full PS content (%) ([4]; additive 7.4 mg): 83.7% | Protection from desulfurization (in words) ([4]; bi-phasic cream formulation): ineffective

O=C(O)CCCCC1CCSS1 (stereo not drawn) [α-lipoic acid]
full PS-content ([5]; additive 0.02%): 80.2 | full PS-content ([5]; additive 0.1%): 84.3 | full PS-content ([5]; additive 0.45%): 84.7 | full PS-content ([5]; additive 1.6%): 87.6 | Protection against desulfurization (in words) [5]: inhibited desulfurization

ISIS 2302: 2′-deoxyoligonucleotide, phosphorothioate backbone, 5′-GCC-CAA-GCT-GGC-ATC-CGT-CA-3′ (SEQ ID NO:1), targeted to 3′-UTR of human ICAM-1 gene (antisense GCCCAAGCTGGCATCCGTCA; DNA, all phosphorothioate, methylation of C not given here)
phosphorothioate content of the cream prior to heating [2, 17]: 95% | Specificity for target ICAM-1 over other potential nucleic acid targets [6]: demonstrated specificity for its target ICAM-1 | Enhanced metastatic ability of C8161 cells resulting from TNF-α treatment ([7]; TNF-α treated cells): eliminated the enhanced metastatic ability | Metastatic potential of C8161 cells [7]: decreased the metastatic potential | Activity against Crohn's disease ([8]; humans): activity against Crohn's disease | Safety in humans ([8]; in vivo): good safety | Steroid-sparing effect ([8]; treated human subjects, five months post-treatment weaned from steroids and in remission): statistically significant steroid-sparing effect | Anti-inflammatory effects in animal testing [9]: strong anti-inflammatory effects | ICAM-1 expression ([10]; human epidermal carcinoma cells (A431)): inhibit ICAM-1 expression | ICAM-1 expression ([10]; human keratinocytes): inhibit ICAM-1 expression | ICAM-1 expression ([10]; human lung carcinoma cells (A549)): inhibit ICAM-1 expression | ICAM-1 expression ([10]; human umbilical vein cells): inhibit ICAM-1 expression | ICAM-1 expression (mRNA levels, northern blot) [1]: markedly reduced ICAM-1 expression | PS content of the cream prior to heating [4, 17]: about 95%

Cc1cc(C(C)(C)C)c(O)c(C(C)(C)C)c1 [BHT, butylated hydroxytoluene]
Full PS content (%) [2, 11]: 85.8% | Full PS content (%) [2, 12]: 82.1% | Full PS content (%) [2, 13]: 80.1% | Full PS content (%) [2, 14]: 85.4% | Full PS content (%) [2, 15]: 84.4% | Full PS content (%) [2, 16]: 85.2% | Protection of phosphorothioate oligonucleotides against desulfurization (in words) [2]: do not provide protection | Full PS content (%) ([4]; additive 5.2 mg): 77.3%

N[C@@H](CCC(=O)N[C@@H](CS)C(=O)NCC(=O)O)C(=O)O [Glutathione]
full PS-content ([5]; additive 0.01%): 9.6 | full PS-content ([5]; additive 0.05%): 49.4 | full PS-content ([5]; additive 0.2%): 50.9 | full PS-content ([5]; additive 0.8%): 80.1 | Protection against desulfurization (in words) [5]: inhibited desulfurization

Cc1cccc(C(C)(C)C)c1O [2-t-butyl-6-methylphenol]
Full PS content (area-% SAX) ([3]; 5 mg additive): 93.4 area-% SAX | Full PS content (%) ([4]; additive 11.0 mg): 79.0%

Vitamin E-TPGS
Full PS content (%) ([4]; additive 7.5 mg): 84.8%

O=S(=O)(O)CCS [2-MESA, Na salt, 2-mercaptoethanesulfonic acid]
full PS-content ([5]; additive 0.01%): 61.2 | full PS-content ([5]; additive 0.05%): 71.6 | full PS-content ([5]; additive 0.2%): 72.5 | full PS-content ([5]; additive 0.8%): 86.7

N[C@@H](CS)C(=O)O [L-cysteine]
full PS-content ([5]; additive 0.01%): 28.4 | full PS-content ([5]; additive 0.05%): 30.8 | full PS-content ([5]; additive 0.2%): 67.3 | full PS-content ([5]; additive 0.8%): 81.9 | Protection against desulfurization (in words) [5]: inhibited desulfurization | Full PS content (%) ([4]; additive 0.05 mg): 89.6% | Full PS content (%) ([4]; additive 0.2 mg): 91.8% | Full PS content (%) ([4]; additive 0.4 mg): 93.6% | Full PS content (%) ([4]; additive 1.0 mg): 93.7% | Full PS content (%) ([4]; additive 6.1 mg): 93.0% | Full PS content (%) ([4]; additive 52.2 mg): 94.5%

O=S(=O)([O-])c1ccc2[nH]c(S)nc2c1.[Na+] [2-MBSA]
full PS-content ([5]; additive 0.01%): 78.7 | full PS-content ([5]; additive 0.05%): 95.2 | full PS-content ([5]; additive 0.2%): 96.1 | full PS-content ([5]; additive 0.8%): 95.7 | Protection against desulfurization (in words) [5]: inhibited desulfurization | Full PS content (%) ([4]; additive 4.8 mg): 95.5%
